Laboratory results: US20260021119A1, “TETRACYCLINE DERIVATIVES” (ICM (INSTITUT DU CERVEAU ET DE LA MOELLE ÉPINIÈRE), priority 2022, published 2026)

Assays:
Assay type in all cases: cell-based
dopamine neurons = assay: Neuroprotection in midbrain mouse cultures, survival of TH+ dopamine neurons; details: 0.5 μM, 1 μM and 5 μM, div14
Procedure: (§1) Midbrain mouse cultures were subjected to a maturation step until day in vitro (div) 7, and then gradually exposed to phenol red formulated DMEM/Nutrient mixture F12 Ham supplemented with 20 μg/mL of insulin and 2 μM of the NMDA receptor blocker MK-801. Under these conditions, which favor low-level, sustained oxidative insults, and lead ultimately to dopamine cell death, treatments with the compound of formula (Ib) according to the invention (at a concentration ranging from 0.1 to 5 μM) were performed or not, as well as treatments with the reference tetracycline antibiotic doxycycline (DOX; 10 μM) and the glycoprotein apotransferrin (APO; 100 μg/mL), the latter being used as reference neuroprotectant. At div14, cultures were fixed, and then processed for tyrosine hydroxylase (TH) immunocytochemistry to estimate the survival of dopamine neurons.
as §1, with “(Ic)” for “(Ib)”, “with” for “with the reference tetracycline antibiotic doxycycline (DOX; 10 μM) and”

[1] = tested on: primary mouse microglial cells (TNF-a release, LPS 10 ng/ml); assay: Anti-inflammatory effect in LPS-activated primary mouse microglial cells, TNF-a ELISA; details: 5 μM, 25 μM and 50 μM
Procedure: Primary mouse microglial cells cultivated in Dulbecco's Modified Eagle Medium (DMEM) with no serum and 15 mM Hepes were challenged with lipopolysaccharide (LPS, 10 ng/ml) for 24 hours in the presence or not of the compound of formula (Ib) according to the present invention at concentrations of 1 μM, 5 μM, 25 μM and 50 μM. After that, the release of the proinflammatory cytokine TNF-a was estimated with an ELISA kit (ThermoFisher Scientific).

bacteria = assay: Antimicrobial effect against bacteria (Example 13, no method given)

**Q.** What does the source list for C[C@@]1(O)c2cccc(O)c2C(=O)C2=C(O)C3C(=O)C(C(N)=O)=C(O)CC3CC21 (stereo partly drawn) [Compound of formula (Ic)]?
**A.** neuroprotective effect (survival of dopamine neurons) (dopamine neurons): highly protective; anti-inflammatory effects vis-à-vis 10 ng/mL LPS [1]: has anti-inflammatory effects; antimicrobial effect against bacteria (bacteria): does not show any antimicrobial effect
